In paper PMC6208607, “Transport of Pregabalin Via L-Type Amino Acid Transporter 1 (SLC7A5) in Human Brain Capillary Endothelial Cell Line” (Pharmaceutical Research, 2018):

Experiments:
[1] = target: T1, L-type amino acid transporter 1 (LAT1) (Homo sapiens, UniProt Q01650); test: inhibition of pregabalin uptake in hCMEC/D3 cells at […] (LAT1 role supported by siRNA); type: cell-based; parameters: gene SLC7A5; endogenous LAT1 in hCMEC/D3 cells; conditions: read-out: Uptake (% of Control)
[2] = target: T1, L-type amino acid transporter 1 (LAT1); test: LC-MS/MS uptake in LAT1-overexpressing HEK293 cells vs mock; inhibition of […]L-leucine uptake at […]; type: cell-based; parameters: gene SLC7A5; entire coding region for human SLC7A5, expressed in HEK293 cells; with 4F2 heavy chain (4F2hc), endogenous

T1 sequence (Q01650 whole entry): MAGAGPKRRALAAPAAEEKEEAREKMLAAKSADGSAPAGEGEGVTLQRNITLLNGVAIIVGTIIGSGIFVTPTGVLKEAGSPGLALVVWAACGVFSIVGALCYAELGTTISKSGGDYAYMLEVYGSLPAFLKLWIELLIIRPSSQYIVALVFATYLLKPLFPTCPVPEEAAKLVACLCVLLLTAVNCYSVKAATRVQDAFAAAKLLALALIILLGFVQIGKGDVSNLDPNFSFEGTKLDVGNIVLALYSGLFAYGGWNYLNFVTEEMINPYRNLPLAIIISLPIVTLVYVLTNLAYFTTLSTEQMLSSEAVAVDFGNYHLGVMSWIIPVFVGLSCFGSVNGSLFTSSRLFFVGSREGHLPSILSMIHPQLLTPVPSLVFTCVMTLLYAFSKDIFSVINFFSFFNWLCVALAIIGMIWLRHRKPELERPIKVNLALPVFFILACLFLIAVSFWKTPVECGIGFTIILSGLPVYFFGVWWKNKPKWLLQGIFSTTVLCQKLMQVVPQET
T1 sequence (P08195 103-630 partner): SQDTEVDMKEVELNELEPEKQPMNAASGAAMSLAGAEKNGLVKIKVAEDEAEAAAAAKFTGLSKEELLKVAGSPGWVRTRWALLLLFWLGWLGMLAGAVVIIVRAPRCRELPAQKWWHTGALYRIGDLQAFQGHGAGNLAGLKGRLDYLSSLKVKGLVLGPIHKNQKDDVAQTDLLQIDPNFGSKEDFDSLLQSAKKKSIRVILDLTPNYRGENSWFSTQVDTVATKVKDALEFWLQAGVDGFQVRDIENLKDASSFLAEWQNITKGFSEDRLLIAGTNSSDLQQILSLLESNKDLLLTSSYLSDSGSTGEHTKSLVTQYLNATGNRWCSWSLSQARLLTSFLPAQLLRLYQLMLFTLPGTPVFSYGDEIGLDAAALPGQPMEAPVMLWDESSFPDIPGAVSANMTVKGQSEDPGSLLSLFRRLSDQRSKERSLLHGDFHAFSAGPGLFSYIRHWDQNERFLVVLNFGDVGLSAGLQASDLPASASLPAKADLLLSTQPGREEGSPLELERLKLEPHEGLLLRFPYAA

SMILES	remaining activity at 10 µM [1] [%]	Km [2] [µM]
Nc1cc(COc2c(Cl)cc(C[C@H](N)C(=O)O)cc2Cl)c2oc(-c3ccccc3)nc2c1 [JPH203]	< 6.53	–
CC(C)C[C@H](CN)CC(=O)O [pregabalin]	–	288
